{"source": "patent US7776826B2", "about": "“Method for fostering bone formation and preservation” (Unigene Laboratories, Inc., priority 2004, dated 2010)", "assay_type_in_all_cases": "in vivo, rat", "key": {"Male Sprague-Dawley rats [1]": {"test_system": "Male Sprague-Dawley rats", "test": "Serum osteocalcin concentration at day 21, Groups K-R", "description": "FIG. 12 provides a measurement of the serum osteocalcin concentration (in ng/ml) in the blood of the rats in Groups K-R when the rats were sacrificed 21 days after commencement of treatment. The meaning of the abbreviated terms is the same as in FIGS. 10 and 11. […] [*=p value<0.05, while **=p value<0.01];\nFIG. 12 is a bar graph which sets forth the osteocalcin levels determined, at the time of sacrifice, in the blood serum of the rats which were the subject of the analyses illustrated in FIGS. 10 and 11. As indicated above, it is well known that osteocalcin is a biochemical marker indicative of new bone growth.\nThe table additionally includes the standard deviations for the values obtained for each analysis, which standard deviations are also included in FIG. 12."}, "Male Sprague-Dawley rats [2]": {"test_system": "Male Sprague-Dawley rats", "test": "High resolution radiograms of left and right femurs, Groups A-J", "details": "left femur with bmx, 21 days", "experimental": "FIG. 3 (a-e) present high resolution radiograms of, respectively, the left (ablated) and right (non-ablated) femurs of some of the rats described with regard to FIGS. 1 and 2 above. (See discussion below of Tables 1 and 2) The radiographs were taken three weeks (i.e., 21 days) following commencement of treatment. The rats were treated as follows: (a) control (i.e., no surgery); (b) sham (i.e., surgery without marrow ablation); (c) mechanical bone marrow ablation (bmx)+phosphate buffer saline (PBS) administration daily for 21 days; (d) bmx followed by parathyroid hormone (PTH[1-34]-NH2) administered daily for 21 days; and (e) bmx followed by parathyroid hormone (PTH[1-34]-NH2) administered daily for 7 days and then salmon calcitonin given daily from days 7-21. A marking of bmx with regard to a right (non-ablated) femur means that\nFIG. 3 presents a set of high resolution radiograms of the entire left and right femurs from rats taken from some of the groups A-J described above. In each of the views shown, the treatment modality is indicated in the lower left corner of the radiogram. The following abbreviations are used: Control=no surgery; Sham=surgery without any bone marrow ablation; BMX=bone marrow ablation; PBS=phosphate buffer saline; PTH=parathyroid hormone (PTH[1-34]-NH2); and CT= salmon calcitonin. […]"}, "Male Sprague-Dawley rats [3]": {"test_system": "Male Sprague-Dawley rats", "test": "MicroCT analysis of femoral shafts, Groups K-R", "details": "left femoral shaft with bmx, agent for 21 days", "description": "FIG. 13(a-b) illustrate the results of Micro Computerized Tomography (MicroCT) analysis of the left (ablated) and right (non-ablated) femoral shafts of the rats of Groups K-R. The abbreviations are the same as those used in FIGS. 10-12;\nFIG. 13 (a-b) provides a comparison between Micro Computerized Tomography (MicroCT) analyses of bone samples taken from the left femoral shaft (FIG. 13a) and the right femoral shaft (FIG. 13b) of rats treated in the manner indicated in FIGS. 10-12. As in the other cases discussed above, the most significant amount of new bone growth is found in the shaft of the left femur, since this shaft was subjected to the bmx treatment. […] In contrast, the right femoral shaft sections show very little or no increase in bone growth at all."}}, "data": [{"substance": "PTH[1-34]-NH2", "values": [{"measurement": "osteocalcin level, in words", "setting": "Male Sprague-Dawley rats [1]; bmx + agent daily for 21 days", "value": "highest osteocalcin level"}, {"measurement": "Osteocalcin mean", "setting": "Male Sprague-Dawley rats [1]; bmx rats, day 21, agent daily for 21 days, Groups K-R", "value": 141.5, "unit": "ng/mL"}, {"measurement": "bone growth on radiograms, in words", "setting": "Male Sprague-Dawley rats [2]", "value": "greatest bone growth"}, {"measurement": "new bone growth in MicroCT, in words", "setting": "Male Sprague-Dawley rats [3]", "value": "significant degree of improvement"}]}]}
